{"source": "ChEMBL document CHEMBL1201862", "about": "“PubChem BioAssay data set” (2004)", "test_in_all_cases": "growth of human tumour cells (NCI), 48 h", "key": {"OVCAR-8": {"test_system": "OVCAR-8"}, "M14": {"test_system": "M14"}, "SF-539": {"test_system": "SF-539"}, "SK-OV-3": {"test_system": "SK-OV-3"}, "SNB-19": {"test_system": "SNB-19"}, "KM12": {"test_system": "KM12"}, "SW-620": {"test_system": "SW-620"}, "786-0": {"test_system": "786-0"}, "HCT-15": {"test_system": "HCT-15"}, "KM-20L2": {"test_system": "KM-20L2"}, "NCI-H226": {"test_system": "NCI-H226"}, "M19-MEL": {"test_system": "M19-MEL"}, "HCT-116": {"test_system": "HCT-116"}, "HCC 2998": {"test_system": "HCC 2998"}, "RXF 393": {"test_system": "RXF 393"}, "DMS-273": {"test_system": "DMS-273"}, "UACC-257": {"test_system": "UACC-257"}, "LXFL 529": {"test_system": "LXFL 529"}, "RPMI-8226": {"test_system": "RPMI-8226"}, "SR": {"test_system": "SR"}, "SK-MEL-28": {"test_system": "SK-MEL-28"}, "SF-268": {"test_system": "SF-268"}, "NCI-H460": {"test_system": "NCI-H460"}, "UO-31": {"test_system": "UO-31"}, "ACHN": {"test_system": "ACHN"}, "NCI-H522": {"test_system": "NCI-H522"}, "SNB-75": {"test_system": "SNB-75"}, "SK-MEL-5": {"test_system": "SK-MEL-5"}, "COLO 205": {"test_system": "COLO 205"}, "SK-MEL-2": {"test_system": "SK-MEL-2"}, "HOP-62": {"test_system": "HOP-62"}, "HOP-18": {"test_system": "HOP-18"}, "CCRF-CEM": {"test_system": "CCRF-CEM"}, "K562": {"test_system": "K562"}, "SNB-78": {"test_system": "SNB-78"}, "SN12C": {"test_system": "SN12C"}, "DMS-114": {"test_system": "DMS-114"}, "IGROV-1": {"test_system": "IGROV-1"}, "DLD-1": {"test_system": "DLD-1"}, "U-251": {"test_system": "U-251"}, "OVCAR-3": {"test_system": "OVCAR-3"}, "A549": {"test_system": "A549"}, "MOLT-4": {"test_system": "MOLT-4"}, "HL-60": {"test_system": "HL-60"}, "A498": {"test_system": "A498"}, "Malme-3M": {"test_system": "Malme-3M"}, "TK-10": {"test_system": "TK-10"}, "OVCAR-4": {"test_system": "OVCAR-4"}, "UACC-62": {"test_system": "UACC-62"}, "CAKI-1": {"test_system": "CAKI-1"}, "SF-295": {"test_system": "SF-295"}, "OVCAR-5": {"test_system": "OVCAR-5"}, "HT-29": {"test_system": "HT-29"}, "HOP-92": {"test_system": "HOP-92"}, "XF498": {"test_system": "XF498"}, "EKVX": {"test_system": "EKVX"}, "NCI-H23": {"test_system": "NCI-H23"}}, "note": "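Five concentrations, 48 hours, 96-well plates. The concentration for 50% growth inhibition is given as GI50.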 Calls of active or inactive are those of the source. Cut-off read from the data, not from the text of the source: active = GI50 up to about 1.1 µM and inactive = higher."}
{"smiles": "C=CC1(NS(=O)(=O)c2ccc(C)cc2)CCC(C(C)(C)C)CC1", "note": "(centres undefined)", "values": [{"measurement": "GI50", "setting": "OVCAR-8", "value": "52.8 µM (inactive)"}, {"measurement": "GI50", "setting": "M14", "value": "98.6 µM (inactive)"}, {"measurement": "GI50", "setting": "SF-539", "value": "64 µM (inactive)"}, {"measurement": "GI50", "setting": "SK-OV-3", "value": "34.4 µM (inactive)"}, {"measurement": "GI50", "setting": "SNB-19", "value": "36.6 µM (inactive)"}, {"measurement": "GI50", "setting": "KM12", "value": "> 100 µM (inactive)"}, {"measurement": "GI50", "setting": "SW-620", "value": "> 100 µM (inactive)"}, {"measurement": "GI50", "setting": "786-0", "value": "46.8 µM (inactive)"}, {"measurement": "GI50", "setting": "HCT-15", "value": "> 100", "unit": "µM"}, {"measurement": "GI50", "setting": "KM-20L2", "value": "> 100 µM (inactive)"}, {"measurement": "GI50", "setting": "NCI-H226", "value": "> 100 µM (inactive)"}, {"measurement": "GI50", "setting": "M19-MEL", "value": "> 100 µM (inactive)"}, {"measurement": "GI50", "setting": "HCT-116", "value": "> 100 µM (inactive)"}, {"measurement": "GI50", "setting": "HCC 2998", "value": "> 100 µM (inactive)"}, {"measurement": "GI50", "setting": "RXF 393", "value": "8.97 µM (inactive)"}, {"measurement": "GI50", "setting": "DMS-273", "value": "43.5 µM (inactive)"}, {"measurement": "GI50", "setting": "UACC-257", "value": "> 100 µM (inactive)"}, {"measurement": "GI50", "setting": "LXFL 529", "value": "99.5 µM (inactive)"}, {"measurement": "GI50", "setting": "RPMI-8226", "value": "17.5 µM (inactive)"}, {"measurement": "GI50", "setting": "SR", "value": "56 µM (inactive)"}, {"measurement": "GI50", "setting": "SK-MEL-28", "value": "> 100 µM (inactive)"}, {"measurement": "GI50", "setting": "SF-268", "value": "27 µM (inactive)"}, {"measurement": "GI50", "setting": "NCI-H460", "value": "> 100 µM (inactive)"}, {"measurement": "GI50", "setting": "UO-31", "value": "> 100 µM (inactive)"}, {"measurement": "GI50", "setting": "ACHN", "value": "65.3 µM (inactive)"}, {"measurement": "GI50", "setting": "NCI-H522", "value": "32.7 µM (inactive)"}, {"measurement": "GI50", "setting": "SNB-75", "value": "17.8 µM (inactive)"}, {"measurement": "GI50", "setting": "SK-MEL-5", "value": "> 100 µM (inactive)"}, {"measurement": "GI50", "setting": "COLO 205", "value": "> 100 µM (inactive)"}, {"measurement": "GI50", "setting": "SK-MEL-2", "value": "60.7 µM (inactive)"}, {"measurement": "GI50", "setting": "HOP-62", "value": "57.7 µM (inactive)"}, {"measurement": "GI50", "setting": "HOP-18", "value": "37.5 µM (inactive)"}, {"measurement": "GI50", "setting": "CCRF-CEM", "value": "> 100 µM (inactive)"}, {"measurement": "GI50", "setting": "K562", "value": "> 100 µM (inactive)"}, {"measurement": "GI50", "setting": "SNB-78", "value": "30.7 µM (inactive)"}, {"measurement": "GI50", "setting": "SN12C", "value": "> 100 µM (inactive)"}, {"measurement": "GI50", "setting": "DMS-114", "value": "27 µM (inactive)"}, {"measurement": "GI50", "setting": "IGROV-1", "value": "76.2 µM (inactive)"}, {"measurement": "GI50", "setting": "DLD-1", "value": "> 100 µM (inactive)"}, {"measurement": "GI50", "setting": "U-251", "value": "35.6 µM (inactive)"}, {"measurement": "GI50", "setting": "OVCAR-3", "value": "21.6 µM (inactive)"}, {"measurement": "GI50", "setting": "A549", "value": "80.9 µM (inactive)"}, {"measurement": "GI50", "setting": "MOLT-4", "value": "> 100 µM (inactive)"}, {"measurement": "GI50", "setting": "HL-60", "value": "70.1 µM (inactive)"}, {"measurement": "GI50", "setting": "A498", "value": "> 100 µM (inactive)"}, {"measurement": "GI50", "setting": "Malme-3M", "value": "82.2 µM (inactive)"}, {"measurement": "GI50", "setting": "TK-10", "value": "88.5 µM (inactive)"}, {"measurement": "GI50", "setting": "OVCAR-4", "value": "91.6 µM (inactive)"}, {"measurement": "GI50", "setting": "UACC-62", "value": "28.5 µM (inactive)"}, {"measurement": "GI50", "setting": "CAKI-1", "value": "> 100 µM (inactive)"}]}
{"smiles": "O=C(O)Cc1cc(=O)[nH]c2c1/C(=N/O)CCC2", "values": [{"measurement": "GI50", "setting": "SF-295", "value": "> 100 µM (inactive)"}, {"measurement": "GI50", "setting": "OVCAR-8", "value": "> 100 µM (inactive)"}, {"measurement": "GI50", "setting": "M14", "value": "> 100 µM (inactive)"}, {"measurement": "GI50", "setting": "SF-539", "value": "> 100 µM (inactive)"}, {"measurement": "GI50", "setting": "SK-OV-3", "value": "> 100 µM (inactive)"}, {"measurement": "GI50", "setting": "SNB-19", "value": "> 100 µM (inactive)"}, {"measurement": "GI50", "setting": "KM12", "value": "> 100 µM (inactive)"}, {"measurement": "GI50", "setting": "OVCAR-5", "value": "> 100 µM (inactive)"}, {"measurement": "GI50", "setting": "SW-620", "value": "> 100 µM (inactive)"}, {"measurement": "GI50", "setting": "786-0", "value": "> 100 µM (inactive)"}, {"measurement": "GI50", "setting": "HCT-15", "value": "> 100", "unit": "µM"}, {"measurement": "GI50", "setting": "NCI-H226", "value": "> 100 µM (inactive)"}, {"measurement": "GI50", "setting": "HCC 2998", "value": "> 100 µM (inactive)"}, {"measurement": "GI50", "setting": "RXF 393", "value": "> 100 µM (inactive)"}, {"measurement": "GI50", "setting": "HT-29", "value": "> 100 µM (inactive)"}, {"measurement": "GI50", "setting": "UACC-257", "value": "> 100 µM (inactive)"}, {"measurement": "GI50", "setting": "LXFL 529", "value": "> 100 µM (inactive)"}, {"measurement": "GI50", "setting": "RPMI-8226", "value": "> 100 µM (inactive)"}, {"measurement": "GI50", "setting": "HOP-92", "value": "> 100 µM (inactive)"}, {"measurement": "GI50", "setting": "SR", "value": "> 100 µM (inactive)"}, {"measurement": "GI50", "setting": "SK-MEL-28", "value": "> 100 µM (inactive)"}, {"measurement": "GI50", "setting": "SF-268", "value": "> 100 µM (inactive)"}, {"measurement": "GI50", "setting": "XF498", "value": "> 100 µM (inactive)"}, {"measurement": "GI50", "setting": "NCI-H460", "value": "> 100 µM (inactive)"}, {"measurement": "GI50", "setting": "UO-31", "value": "> 100 µM (inactive)"}, {"measurement": "GI50", "setting": "ACHN", "value": "> 100 µM (inactive)"}, {"measurement": "GI50", "setting": "NCI-H522", "value": "> 100 µM (inactive)"}, {"measurement": "GI50", "setting": "SK-MEL-5", "value": "> 100 µM (inactive)"}, {"measurement": "GI50", "setting": "EKVX", "value": "> 100 µM (inactive)"}, {"measurement": "GI50", "setting": "SK-MEL-2", "value": "> 100 µM (inactive)"}, {"measurement": "GI50", "setting": "HOP-18", "value": "> 100 µM (inactive)"}, {"measurement": "GI50", "setting": "CCRF-CEM", "value": "> 100 µM (inactive)"}, {"measurement": "GI50", "setting": "NCI-H23", "value": "> 100 µM (inactive)"}, {"measurement": "GI50", "setting": "K562", "value": "> 100 µM (inactive)"}, {"measurement": "GI50", "setting": "SN12C", "value": "> 100 µM (inactive)"}, {"measurement": "GI50", "setting": "IGROV-1", "value": "> 100 µM (inactive)"}, {"measurement": "GI50", "setting": "DLD-1", "value": "> 100 µM (inactive)"}, {"measurement": "GI50", "setting": "U-251", "value": "> 100 µM (inactive)"}, {"measurement": "GI50", "setting": "OVCAR-3", "value": "> 100 µM (inactive)"}, {"measurement": "GI50", "setting": "A549", "value": "> 100 µM (inactive)"}, {"measurement": "GI50", "setting": "MOLT-4", "value": "> 100 µM (inactive)"}, {"measurement": "GI50", "setting": "HL-60", "value": "> 100 µM (inactive)"}, {"measurement": "GI50", "setting": "Malme-3M", "value": "> 100 µM (inactive)"}, {"measurement": "GI50", "setting": "TK-10", "value": "> 100 µM (inactive)"}]}
